Literature values as cited in patent US20110311631A1, “CONTROLLED RELEASE PHARMACEUTICAL COMPOSITION WITH RESISTANCE AGAINST THE INFLUENCE OF ETHANOL EMPLOYING A COATING COMPRISING A POLYMER MIXTURE AND EXCIPIENTS” (EVONIK RÖHM GMBH, priority 2009, published 2011).
Where a name gives a salt, the structure may show the parent alone. Read-outs that look alike come from different tables or passages of the source.

Conditions: USP classification, between 15° C. and 25° C.

Solubility in water	Solubility in ethanol (HCl)	Solubility in ethanol (listed as diltiazem, HCl)	Solubility in ethanol (listed as metoprolol)	Structure (SMILES)	Solubility in ethanol	Solubility in ethanol (listed as theophyllin)	Solubility in ethanol (listed as naloxone)
Freely soluble (from 1 to 10)	Sparingly soluble (more than 30 to 100)	sparingly soluble		COc1ccc([C@@H]2Sc3ccccc3N(CCN(C)C)C(=O)[C@@H]2OC(C)=O)cc1 [Diltiazem HCl]			
Freely soluble (from 1 to 10)			sparingly soluble	COCCc1ccc(OCC(O)CNC(C)C)cc1 (centres unmarked) [Metoprolol succinate]	Sparingly soluble (more than 30 to 100)		
Practically insoluble (more than 10.000)				NC(=O)N1c2ccccc2C=Cc2ccccc21 [Carbamazepine]	Soluble (more than 10 to 30)		

Structure (SMILES)	Solubility in water	Solubility in ethanol (HCl)	Solubility in ethanol (listed as diltiazem, HCl)	Solubility in ethanol (listed as metoprolol)	Solubility in ethanol	Solubility in ethanol (listed as theophyllin)	Solubility in ethanol (listed as naloxone)
Cn1c(=O)c2[nH]cnc2n(C)c1=O [Theophylline]	Slightly soluble (more than 100 to 1000)				Sparingly soluble (more than 30 to 100)	sparingly soluble	
C=CCN1CC[C@]23c4c5ccc(O)c4O[C@H]2C(=O)CC[C@@]3(O)[C@H]1C5 [Naloxone]	Soluble (more than 10 to 30)				Slightly soluble (more than 100 to 1000)		slightly soluble
